Data on one molecule can be found in patent US20220396567A1, “SUBSTITUTED PYRIMIDINE FOR THE TREATMENT AND PROPHYLAXIS OF HEPATITIS B VIRUS INFECTION” (Hoffmann-La Roche Inc., priority 2019, published 2022).

This assay concerns HBV. The experiment in a line: Cryopreserved primary human hepatocytes (PHH) HBV infection assay, extracellular HBsAg by CLIA. It counts as cell-based. The settings on record: Hepatitis B virus, Hepatocyte, 216 h; HBV-infected cryopreserved PHH; extracellular HBsAg at 9 days post-compound treatment; 4 parameter logistic curve fit. How it is done: This assay is used to confirm the anti-HBV effect of the compounds in HBV PHH infection assay. Cryopreserved PHH (BioreclamationIVT, Lot YJM) was thawed at 37° C. and gently transferred into pre-warmed InVitroGRO HT medium (BioreclamationIVT, Cat. S03317). The mixture was centrifuged at 70 relative centrifugal force (RCF) for 3 min at RT, and the supernatant was discarded. Pre-warmed InVitroGRO CP medium (BioreclamationIVT, Cat #S03316) was added to the cell pellet to gently re-suspend cells. The cells were seeded at the density of 5.8×10^4 cells per well to collagen I coated 96-well plate (Gibco, Cat. A1142803) with the InVitroGRO CP medium. All plates were incubated at 37° C. with 5% CO2 and 85% humidity.
At 20 hrs after plating, the medium was changed to PHH culture medium (Dulbecco's Modified Eagle Medium (DMEM)/F12 (1:1) (Gibco, Cat. 11320-033), 10% fetal bovine serum (Gibco Cat. 10099141), 100 U/mL penicillin, 100 μg/mL streptomycin (Gibco, Cat. 151401-122), […] (Invitrogen Cat. PHG0311L), 20 ng/mL dexamethasone (Sigma, Cat. D4902) and 250 ng/mL human recombinant insulin (Gibco, Cat. 12585-014)). And the cells were incubated at 37° C. with 5% CO2 and 85% humidity for 4 hrs. The medium was then changed to pre-warmed PHH culture medium containing 4% polyethylene glycol (PEG) MW8000 (Sigma, Cat. P1458-50 ML) and 1% DMSO (Sigma, Cat. D2650). 5.8×10^6 genomic equivalents of HBV were added into the medium.
At 24 hrs post-infection, the cells were gently washed with PBS and refreshed with PHH culture medium supplemented with 1% DMSO, and 0.25 mg/mL Matrix gel (Corning, Cat. 356237) at 200 μL per well. All plates were immediately placed in at 37° C. CO2 incubator.
24 hrs later, serial dilutions of compounds made with DMSO were further diluted with the same culture medium (PHH culture medium supplemented with 1% DMSO and 0.25 mg/mL Matrix gel as described above) before they were added to the cells to reach desired final compound concentrations and 1% DMSO concentration. The medium containing the compounds were refreshed every three days.
At 9 days post-compound treatment, extracellular HBsAg level were measured with Chemiluminescence Immuno Assay (CLIA) kit (Autobio, HBsAg Quantitative CLIA).
HBsAg IC50 was derived from the dose-response curve using 4 parameter logistic curve fit method. The compounds of formula (I) have HBsAg IC50<20 μM, particularly <1 μM.

In general, IC50 refers to the midpoint of a concentration-inhibition curve. Higher therefore signals weaker potency in that assay. On to `CCOC(=O)c1c(NCc2c(Br)ccc(OC)c2OC)nc(C(C)C)nc1-c1ccco1` [Example 62, Ethyl 4-[(6-bromo-2,3-dimethoxy-phenyl)methylamino]-6-(2-furyl)-2-isopropyl-pyrimidine-5-carboxylate], for which half-maximal inhibition (IC50) required 10.2 µM.
